Measurements reported in patent publication US20210244791A1, “APPLICATION OF PEDF-DERIVED SHORT PEPTIDES IN TENDON HEALING” (BRIM Biotechnology, Inc., priority 2018, published 2021).

Key:
cyclin D1 = experiment: Western blot analysis of cyclin D1 expression in TSPC; format: cell-based, rabbit; details: TSPC treated 24 h; compared with solvent-treated cells; normalized to β-actin
Method: Primary rabbit TSPC were treated with 10NM 29-mer or its variants for 24 h. Representative blots (A) and densitometric analysis with the SD (B) from three independent experiments are shown. Cyclin D1 expression was normalized to ([…]. *P<0.01 vs. solvent-treated cells. ^#P<0.05 vs. 29-mer-treated cells.
Achilles tendons from New Zealand White rabbits (6-8 months old, 3.0-4.0 kg) were used in this study. Achilles tendons were washed two times with sterile phosphate-buffered saline (PBS) containing 50 μg/ml gentamicin. The tendon and tendon sheath were cut into small pieces (1-2 mm^3). Each 100 mg of fragment was then digested in a solution containing 3 mg/ml of type I collagenase and 4 mg/ml of dispase in 1 ml balance salt solution (BSS; Alcone) at 37° C. for 4 hours. The digested tissues were washed three times with PBS and collected by centrifugation (800 g for 10 min). The digested tissues were placed in tissue-culture plates (Falcon Labware; NJ, USA) and resuspended in high-glucose DMEM supplemented with 10% FBS and 50 μg/ml gentamycin, and maintained at 37° C. with 5% CO2. After 5 days, the medium was changed to remove the loosened tissue residues. Subsequently, tendon cells were incubated with 10% FBS medium for 2 days, and then cultured with a basal medium (2% FBS, 1% ITSE, 300 μg/ml L-glutamine, 1% antibiotic-antimicotic solutions) for further 10 days. Culture medium was changed every 3 days. For passage, tendon cells were harvested with 0.25% trypsin/EDTA, cell counting by haemocytometer, approximately 5×10^3 cells were seeded in each well of a 96-well cell culture plate or 2×10^5 cells were seeded in each well of a 6-well cell culture plate for 24 h. These expanded tendon cells were then treated with 10 μM 29-mer or its variants in fresh basal medium for further 24 h and subjected to cell proliferation assay and western blot analysis, respectively.
Cell lysis, SDS-PAGE, and antibodies used for immunoblotting were performed as described (Ho et al., 15-deoxy-Delta(12,14)-prostaglandin J2 induces vascular endothelial cell apoptosis through the sequential activation of MAPKS and p53. J Biol. Chem., 2008; 283(44): 30273-30288). The band intensity in immunoblot was evaluated with a Model GS-700 imaging densitometer (Bio-Rad Laboratories, Hercules, Calif.) and analyzed using Labworks 4.0 software.
However, the 29-mer effect on cyclin D1 protein induction was almost abolished by alanine/glycine replacement at residue S93, A96, Q98, 1103, 1104 and R106, respectively (1.3±0.1, 1.5±0.3, 1.3±0.1, 0.9±0.1, 1.3±0.2, and 1.0±0.3). […] The data also imply that the PDSP at positions Ser93, Ala96, Gln98, Ile103, Ile104, and Arg106 are important for sustaining the PDSP effect on induction of TSPC proliferation.

injured Achilles tendon = experiment: Rat model of Achilles tendon injury, histology (H&E) and histopathological score; format: in vivo; details: 1 week postoperative
Text: Representative micrographs of the histopathological analysis by H&E staining. H&E-stained sections in higher magnification show uninjured tendon tissue with a relative scarcity of cells among the collagen fibers.
(A) Representative H&E-stained longitudinal sections in higher magnification show the nuclei morphologies in uninjured tendon tissue and injured tendon treated with vehicle/alginate and 29-mer/alginate for 1 week. (B) Histopathological scores. Total scores were determining by fiber structure, fiber arrangement, rounding of the nuclei, resident cell density and inflammation (infiltration of inflammatory cells, neovascularization and fatty deposits). Data are reported as mean±SE. *P<0.0005 versus vehicle/alginate-treated tendon; ^#P<0.05 versus 29-mer/alginate-treated tendon.
To investigate the effects of the 29-mer peptide on tendon healing, a rat model of Achilles tendon injury was established as reported by Orhan et al. (The effect of extracorporeal shock waves on a rat model of injury to tendon Achilles. A histological and biomechanical study. J. Bone Joint Surg. Br. 2004;.86(4):.613-618). Adult 10-week-old male Sprague-Dawley rats (initial body weight=312±11 g) were anesthetized by an intraperitoneal injection of xylazine (10 mg/kg). Then, the left tendo Achilles injury was created by full-thickness insertion of an 18-G needle through tendo Achilles 1 cm proximal to the calcaneum attachment site. This created a horizontal wound that was flanked by intact tendon tissue to prevent the retraction of severed ends. The skin incision was closed after the wound was irrigated with sterile saline. Treatments were applied to area around the tendon lesion by subcutaneous injection with 150 μl of alginate gel mixed with 100 μM 29-mer or DMSO vehicle (six rats per experimental condition).
The tendon and surrounding soft tissue were dissected. Specimens were fixed in a 4% paraformaldehyde (PFA) solution and then were embedded in paraffin blocks. Sections (5 μm in thickness) were longitudinally cut and stained with hematoxylin and eosin (H&E) or used for immunohistochemical examination. 36 sections per tendon were carefully prepared so as to include the most severely degenerated area. Images were captured using a Nikon Eclipse 80i microscope (Nikon Corporation, Tokyo, Japan) equipped with a Leica DC 500 camera (Leica Microsystems, Wetzlar, Germany). Four sections of each sample containing injured tendon tissues were selected and evaluated by two blinded observers to assess the tendon morphology according to a modified semi-quantitative grading score from 0 to 3 proposed by Chen et al. (Tendon derived stem cells promote platelet-rich plasma healing in collagenase-induced rat Achilles tendinopathy. Cell Physiol. Biochem., 2014; 34(6): 2153-68). The scores analyzed the fiber structure (0-3), fiber arrangement (0-3), rounding of the nuclei (0-3), resident cell density (0-3), and inflammation (0-3; infiltration of inflammatory cells, neovascularization and fatty deposits). According to this grading system, a perfectly normal tendon obtained a score of 0, whereas a score of 15 was assigned to maximally abnormal tendons.
To investigate the therapeutic effect of the 29-mer peptide on injured tendon, a rat model of Achilles tendon injury was established by full-thickness insertion of an 18-G needle through the tendon Achilles. We delivered the 29-mer in a 150 μl alginate gel, which releases 90% loaded 29-mer in 5 days as described in a previous protocol (Ho et al., PEDF-derived peptide promotes skeletal muscle regeneration through its mitogenic effect on muscle progenitor cells. Am J Physiol. Cell Physiol. 2015 Aug. 1; 309(3): C159-68).

tendon rupture = details: rat model; previous study; cited from earlier work

## SLGAEQRTESIIHRALYYDLISSPDIHGT (listed as Homo sapiens) [29-mer, PEDF-derived short peptide, human PEDF residues 93-121]
Cyclin D1
  induction of the cyclin D1 protein: 2.9±0.5 fold
Injured Achilles tendon; peptide/alginate gel, 0 = normal tendon, 15 = maximally abnormal, vehicle/alginate 12.7±0.6
  total histopathological score: 7.9±0.4
Injured Achilles tendon; subcutaneous 150 μl alginate gel with 100 μM peptide
  histological appearance of treated tendon (H&E staining): uniform appearance of well-aligned collagen fibers
Tendon rupture
  healing of tendon rupture: facilitated healing of tendon rupture
